The values below come from PubChem BioAssay AID588645 (Sanford-Burnham Center for Chemical Genomics, 2011).

pIC50: −log10 of the molar value. Active and inactive are the calls of the source. No rule for the calls is given here.

Sequence of Intestinal-type alkaline phosphatase (Homo sapiens) (P09923 whole entry, looked up): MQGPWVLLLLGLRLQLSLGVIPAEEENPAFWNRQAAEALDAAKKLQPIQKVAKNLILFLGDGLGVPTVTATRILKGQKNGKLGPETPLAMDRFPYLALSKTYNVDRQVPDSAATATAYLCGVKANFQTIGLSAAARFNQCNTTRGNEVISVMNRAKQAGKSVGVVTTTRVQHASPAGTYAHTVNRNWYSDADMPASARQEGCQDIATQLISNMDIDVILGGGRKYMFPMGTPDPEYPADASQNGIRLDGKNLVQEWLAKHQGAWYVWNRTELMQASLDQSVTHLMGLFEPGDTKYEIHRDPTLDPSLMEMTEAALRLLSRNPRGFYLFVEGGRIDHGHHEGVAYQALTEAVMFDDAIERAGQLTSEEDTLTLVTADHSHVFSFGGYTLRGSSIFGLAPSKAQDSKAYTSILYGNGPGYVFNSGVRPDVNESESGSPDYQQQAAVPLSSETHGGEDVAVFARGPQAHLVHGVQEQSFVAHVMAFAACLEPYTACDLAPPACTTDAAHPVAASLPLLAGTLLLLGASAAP

This test has as its target Intestinal-type alkaline phosphatase (Homo sapiens) (UniProt P09923). Description: human IAP enzyme inhibitors, SAR follow-up, mouse IAP inhibitor project, biochemical, set 2 (AID 588645). As to conditions: human intestinal alkaline phosphatase enzymatic inhibition assay.
For `Cc1ccc(NC(=O)CCNS(=O)(=O)c2ccc3c(c2)oc(=O)n3C)c(C)c1`, the IC50 (usually the concentration at which inhibition is half-maximal) is > 100 µM (inactive).

As for `O=C(N/N=C/c1c(Cl)cccc1Cl)c1cc(O)c(O)c(O)c1`, the IC50 was > 100 µM (inactive). As to `O=C(CNS(=O)(=O)c1ccc2[nH]c(=O)oc2c1)NCCc1ccc2c(c1)OCO2`, the IC50 was > 100 µM (inactive). Consider `CC(C)c1ccc(NC(=O)CCNS(=O)(=O)c2ccc3c(c2)oc(=O)n3C)cc1`, for which the IC50 was > 100 µM (inactive).

As to `COc1ccc(/C=N/NC(=O)c2cc(O)c(O)c(O)c2)cc1OC`, the IC50 was > 100 µM (inactive). On to `O=c1[nH]c2ccc(S(=O)(=O)NCCc3ccc4c(c3)OCO4)cc2o1`, for which the IC50 was > 100 µM (inactive).

As for `O=C(CCNS(=O)(=O)c1ccc2[nH]c(=O)oc2c1)NCc1ccc(O)c(O)c1`, the pIC50 – broadly, −log10 of the IC50, conventionally taken in molar units – was 4.74. Regarding `COc1cccc(/C=N/NC(=O)c2cc(O)c(O)c(O)c2)c1O`, the IC50 was > 100 µM (inactive).

On to `O=C(N/N=C/c1ccccc1Cl)c1cc(O)c(O)c(O)c1`, for which the IC50 is > 100 µM (inactive). Still for that read-out and setting: the figure for `O=C(CCNS(=O)(=O)c1ccc2[nH]c(=O)oc2c1)NCc1cccc(F)c1` is > 100 µM (inactive); for `O=C(CCCNS(=O)(=O)c1ccc2[nH]c(=O)oc2c1)NCCc1ccc(O)cc1` it is > 100 µM (inactive). For the compound `O=C(NN=Cc1ccccc1F)c1ccc(O)cc1`, the IC50 was > 100 µM (inactive).

For the compound `COc1ccccc1CNC(=O)CCNS(=O)(=O)c1ccc2[nH]c(=O)oc2c1`, the IC50 was > 100 µM (inactive). Regarding `COc1ccc(CNC(=O)CCNS(=O)(=O)c2ccc3[nH]c(=O)oc3c2)cc1`, the IC50 was > 100 µM (inactive). With `CN(C)c1ccc(CNC(=O)C2CCCN(S(=O)(=O)c3ccc4[nH]c(=O)oc4c3)C2)cc1` (stereo unspecified), the IC50 was > 100 µM (inactive).

Regarding `CSc1cccc(NC(=O)C2CCCN(S(=O)(=O)c3ccc4c(c3)oc(=O)n4C)C2)c1` (stereo unspecified), the IC50 was > 100 µM (inactive).

As for `COc1ccc(C(=O)N/N=C/c2c(F)cccc2Cl)cc1OC`, the IC50 was > 100 µM (inactive).

Take `COc1ccc(CNC(=O)CCCNS(=O)(=O)c2ccc3[nH]c(=O)oc3c2)c(OC)c1`: the IC50 was > 100 µM (inactive). For `O=C(N/N=C/c1c(F)cccc1Cl)c1ccc(O)cc1`, the IC50 was > 100 µM (inactive). Take `O=c1[nH]c2ccc(S(=O)(=O)NCc3ccc4c(c3)OCO4)cc2o1`: the IC50 is > 100 µM (inactive). On the same count and under the same terms, the figure for `Cc1cc(NC(=O)CCNS(=O)(=O)c2ccc3[nH]c(=O)oc3c2)ccc1Br` is > 100 µM (inactive); for `COc1ccc(NC(=O)CCCNS(=O)(=O)c2ccc3[nH]c(=O)oc3c2)cc1OC` it is > 100 µM (inactive); for `Cc1ccc(C)c(NC(=O)CCNS(=O)(=O)c2ccc3ccccc3c2)c1` it is > 100 µM (inactive). With `COc1ccc(CNC(=O)CNS(=O)(=O)c2ccc3[nH]c(=O)oc3c2)c(OC)c1`, the IC50 was > 100 µM (inactive). Take `CCOc1ccc(CNC(=O)C2CCCN(S(=O)(=O)c3ccc4[nH]c(=O)oc4c3)C2)cc1OC` (stereo unspecified): the IC50 was > 100 µM (inactive). Take `COc1ccc(CNC(=O)CCNS(=O)(=O)c2ccc3ccccc3c2)c(OC)c1`: the IC50 was > 100 µM (inactive).

`COc1ccc(CNS(=O)(=O)c2ccc3[nH]c(=O)oc3c2)c(OC)c1`: the IC50 is > 100 µM (inactive).

Consider `Cc1ccc(C)c(NC(=O)CCNS(=O)(=O)c2ccc3[nH]c(=O)oc3c2)c1`, for which the IC50 is > 100 µM (inactive). On to `Cc1ccc(C)c(NC(=O)CNS(=O)(=O)c2ccc3[nH]c(=O)oc3c2)c1`, for which the IC50 was > 100 µM (inactive). As to `COc1ccc(CNC(=O)CCNS(=O)(=O)c2ccc3[nH]c(=O)oc3c2)c(OC)c1`, the IC50 was > 100 µM (inactive). `O=C(CCNS(=O)(=O)c1ccc2[nH]c(=O)oc2c1)NCc1ccccc1Cl`: the IC50 was > 100 µM (inactive). Take `O=C(NCc1ccccc1)C1CCCN(S(=O)(=O)c2ccc3[nH]c(=O)oc3c2)C1` (stereo unspecified): the IC50 is > 100 µM (inactive). With `N#Cc1cccc(NC(=O)CNS(=O)(=O)c2ccc3[nH]c(=O)oc3c2)c1`, the IC50 was > 100 µM (inactive). For `COc1ccc(C(=O)N/N=C/c2ccccc2F)cc1`, the IC50 was > 100 µM (inactive). Still for that read-out and setting: then `CCc1ccc(NC(=O)CCNS(=O)(=O)c2ccc3c(c2)oc(=O)n3C)cc1`, with > 100 µM (inactive). Same read-out and setting: then `CCc1ccc(NC(=O)C2CCCN(S(=O)(=O)c3ccc4c(c3)oc(=O)n4C)C2)cc1` (stereo unspecified), with > 100 µM (inactive).

With `C/C(=N\NC(=O)c1cc(O)c(O)c(O)c1)c1ccc(O)cc1O`, the IC50 was > 100 µM (inactive). Same read-out and setting: the figure for `Cc1ccc(NC(=O)CCNS(=O)(=O)c2ccc3[nH]c(=O)oc3c2)cc1C` is > 100 µM (inactive). For the compound `COc1cccc(CNC(=O)CCNS(=O)(=O)c2ccc3[nH]c(=O)oc3c2)c1`, the IC50 is > 100 µM (inactive).

For the compound `CCOc1cc(C(=O)N/N=C/c2c(F)cccc2Cl)cc(OCC)c1OCC`, the IC50 was > 100 µM (inactive). In the case of `Cc1ccc(NC(=O)CCNS(=O)(=O)c2ccc3c(c2)oc(=O)n3C)cc1C`, the IC50 is > 100 µM (inactive). Take `O=C(CCCNS(=O)(=O)c1ccc2[nH]c(=O)oc2c1)NCc1ccc2c(c1)OCO2`: the IC50 was > 100 µM (inactive). On the same count and under the same terms, then `O=C(CCNS(=O)(=O)c1ccc2c(c1)CCC2)NCCc1ccc2c(c1)OCO2`, with > 100 µM (inactive). Regarding `CC(C)c1ccc(NC(=O)C2CCCN(S(=O)(=O)c3ccc4c(c3)oc(=O)n4C)C2)cc1` (stereo unspecified), the IC50 is > 100 µM (inactive). For `N#Cc1ccc(NC(=O)CNS(=O)(=O)c2ccc3[nH]c(=O)oc3c2)cc1`, the IC50 is > 100 µM (inactive).

Regarding `Cc1ccc(NC(=O)CCNS(=O)(=O)c2ccc3c(c2)oc(=O)n3C)cc1`, the IC50 is > 100 µM (inactive). As to `O=C(CCNS(=O)(=O)c1ccc2[nH]c(=O)oc2c1)Nc1ccc2c(c1)OCO2`, the IC50 was > 100 µM (inactive).

As to `COc1ccc(OC)c(NC(=O)C2CCCN(S(=O)(=O)c3ccc4c(c3)oc(=O)n4C)C2)c1` (stereo unspecified), the IC50 is > 100 µM (inactive).

As for `O=C(NCc1ccc(F)cc1)C1CCCN(S(=O)(=O)c2ccc3[nH]c(=O)oc3c2)C1` (stereo unspecified), the IC50 is > 100 µM (inactive).

Turning to `COc1ccc(CNC(=O)CNS(=O)(=O)c2ccc3[nH]c(=O)oc3c2)cc1`, the IC50 was > 100 µM (inactive). For the compound `O=C(N/N=C/c1c(F)cccc1Cl)c1ccc(O)cc1O`, the IC50 was > 100 µM (inactive).

In the case of `Cc1ccc(C)c(NC(=O)CCNS(=O)(=O)c2ccc3c(c2)CCC3)c1`, the IC50 is > 100 µM (inactive). Regarding `COc1ccc(CCNC(=O)CCCNS(=O)(=O)c2ccc3[nH]c(=O)oc3c2)cc1`, the IC50 is > 100 µM (inactive).

Regarding `COc1ccc(NC(=O)CCNS(=O)(=O)c2ccc3c(c2)CCC3)cc1OC`, the IC50 was > 100 µM (inactive).

For the compound `COc1cc(C(=O)N/N=C/c2c(F)cccc2Cl)cc(OC)c1OC`, the IC50 was > 100 µM (inactive). As to `CC(C)c1ccc(/C=N/NC(=O)c2cc(O)c(O)c(O)c2)cc1`, the pIC50 is 4.96.

With `O=C(CCNS(=O)(=O)c1ccc2[nH]c(=O)oc2c1)NCc1ccc(C(F)(F)F)cc1`, the IC50 was > 100 µM (inactive). On the same count and under the same terms, then `O=C(CCNS(=O)(=O)c1ccc2[nH]c(=O)oc2c1)NCCc1ccc2c(c1)OCO2`, with > 100 µM (inactive); and `COc1ccccc1CNC(=O)CCCNS(=O)(=O)c1ccc2[nH]c(=O)oc2c1`, with > 100 µM (inactive); and `COc1ccc(CNC(=O)CCCNS(=O)(=O)c2ccc3[nH]c(=O)oc3c2)cc1OC`, with > 100 µM (inactive). With `COc1cccc(NC(=O)CCNS(=O)(=O)c2ccc3c(c2)oc(=O)n3C)c1`, the IC50 was > 100 µM (inactive).

Regarding `O=C(CCNS(=O)(=O)c1ccc2[nH]c(=O)oc2c1)NCc1ccc(Cl)cc1`, the IC50 is > 100 µM (inactive). Regarding `COc1ccc(/C=N\NC(=O)c2cc(O)c(O)c(O)c2)cc1CN1CCN(c2ccc(F)cc2)CC1`, the IC50 was > 100 µM (inactive).

Take `N#Cc1cccc(CNC(=O)CCNS(=O)(=O)c2ccc3[nH]c(=O)oc3c2)c1`: the IC50 was > 100 µM (inactive). For `O=C(N/N=C/c1ccccc1C(F)(F)F)c1cc(O)c(O)c(O)c1`, the IC50 was > 100 µM (inactive). For `O=C(CCS(=O)(=O)Nc1ccc2[nH]c(=O)oc2c1)NCc1ccccc1Cl`, the IC50 was > 100 µM (inactive). As for `O=C(CCNS(=O)(=O)c1ccc2[nH]c(=O)oc2c1)NCCc1ccc(O)cc1`, the IC50 is > 100 µM (inactive). The same measure, in the same setting: the figure for `CC(C)(C)c1ccc(/C=N/NC(=O)c2cc(O)c(O)c(O)c2)cc1` is > 100 µM (inactive); for `O=C(CCNS(=O)(=O)c1ccc2[nH]c(=O)oc2c1)NCc1cccc(C(F)(F)F)c1` it is > 100 µM (inactive). The same measure, in the same setting: then `O=C(CCCNS(=O)(=O)c1ccc2[nH]c(=O)oc2c1)NCc1cccc(F)c1`, with > 100 µM (inactive). `Cc1ccc(C)c(CNC(=O)C2CCCN(S(=O)(=O)c3ccc4[nH]c(=O)oc4c3)C2)c1` (stereo unspecified): the IC50 was > 100 µM (inactive).

For `O=C(N/N=C/c1c(F)cccc1Cl)c1cc(O)c(O)c(O)c1`, the IC50 was > 100 µM (inactive). `O=C(N/N=C/c1cccc(Cl)c1Cl)c1cc(O)c(O)c(O)c1`: the pIC50 was 4.19. Take `COc1ccc(NC(=O)CCNS(=O)(=O)c2ccc3ccccc3c2)cc1OC`: the IC50 was > 100 µM (inactive). Same read-out and setting: the figure for `O=C(N/N=C/c1c(F)cccc1F)c1ccc(O)cc1` is > 100 µM (inactive); for `N#Cc1cccc(NS(=O)(=O)c2ccc3[nH]c(=O)oc3c2)c1` it is > 100 µM (inactive). Take `COc1cccc(CNC(=O)CNS(=O)(=O)c2ccc3[nH]c(=O)oc3c2)c1`: the IC50 is > 100 µM (inactive). With `O=C(N/N=C/c1ccccc1F)c1ccccc1OCc1ccccc1`, the IC50 was > 100 µM (inactive).

In the case of `Cc1ccccc1CNC(=O)C1CCCN(S(=O)(=O)c2ccc3[nH]c(=O)oc3c2)C1` (stereo unspecified), the IC50 is > 100 µM (inactive). Regarding `O=C(N/N=C/c1ccc(F)c(Br)c1)c1cc(O)c(O)c(O)c1`, the IC50 is > 100 µM (inactive). Consider `COc1ccc(CNC(=O)CCNS(=O)(=O)c2ccc3c(c2)CCC3)c(OC)c1`, for which the IC50 was > 100 µM (inactive).
